From PubChem BioAssay AID248 (DTP/NCI, 2004)
Inconclusive results and toxic doses are left out. No stated cut-off is given here; in the data, active means T/C of 150% or more; inactive means T/C below 125%.

Tested on: L1210 leukemia ip in BDF1 mice, survival T/C
Assay: NCI In Vivo Anticancer Drug Screen. Data for tumor model L1210 Leukemia (intraperitoneal) in B6D2F1 (BDF1) mice
Conditions: endpoint: mean survival time, higher = longer survival
How it was run: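 Survival endpoint. Drug-treated group vs vehicle group, expressed as T divided by C. Tumor passaged by transplantation.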

[1] = dose: 12.5 mg/kg/injection, schedule: Q01DX009 (ip), vehicle: saline
[2] = dose: 25.0 mg/kg/injection, schedule: Q01DX009 (ip), vehicle: saline
[3] = dose: 25.0 mg/kg/injection, schedule: Q04DX003 (ip), vehicle: saline
[4] = dose: 50.0 mg/kg/injection, schedule: Q04DX003 (ip), vehicle: saline
[5] = dose: 100.0 mg/kg/injection, schedule: Q01DX009 (ip), vehicle: saline with Tween-80
[6] = dose: 100.0 mg/kg/injection, schedule: Q04DX003 (ip), vehicle: saline with Tween-80
[7] = dose: 5.0 mg/kg/injection, schedule: Q01DX001 (ip), vehicle: saline
[8] = dose: 10.0 mg/kg/injection, schedule: Q01DX001 (ip), vehicle: saline
[9] = dose: 40.0 mg/kg/injection, schedule: Q01DX001 (ip), vehicle: saline
[10] = dose: 100.0 mg/kg/injection, schedule: Q01DX001 (ip), vehicle: saline
[11] = dose: 100.0 mg/kg/injection, schedule: Q04DX003 (ip), vehicle: Klucel (hydroxypropylcellulose) (HPC)
[12] = dose: 100.0 mg/kg/injection, schedule: Q04DX003 (ip), vehicle: saline
[13] = dose: 200.0 mg/kg/injection, schedule: Q04DX003 (ip), vehicle: saline
[14] = dose: 400.0 mg/kg/injection, schedule: Q04DX003 (ip), vehicle: saline
[15] = dose: 100.0 mg/kg/injection, schedule: Q01DX001 (ip), vehicle: other
[16] = dose: 200.0 mg/kg/injection, schedule: Q01DX001 (ip), vehicle: other
[17] = dose: 100.0 mg/kg/injection, schedule: Q04DX002 (ip), vehicle: Klucel (hydroxypropylcellulose) (HPC)
[18] = dose: 200.0 mg/kg/injection, schedule: Q04DX002 (ip), vehicle: Klucel (hydroxypropylcellulose) (HPC)
[19] = dose: 100.0 mg/kg/injection, schedule: Q04DX002 (ip), vehicle: saline with Tween-80
[20] = dose: 200.0 mg/kg/injection, schedule: Q04DX002 (ip), vehicle: saline with Tween-80
[21] = dose: 100.0 mg/kg/injection, schedule: Q01DX009 (ip), vehicle: Klucel (hydroxypropylcellulose) (HPC)
[22] = dose: 200.0 mg/kg/injection, schedule: Q01DX009 (ip), vehicle: Klucel (hydroxypropylcellulose) (HPC)
[23] = dose: 400.0 mg/kg/injection, schedule: Q01DX009 (ip), vehicle: Klucel (hydroxypropylcellulose) (HPC)

Measured: T/C

FC(F)(F)c1ccc2c(c1)N(CCCNCCN1CCOCC1)c1ccccc1S2
inactive: dose: 3.12 mg/kg/injection, schedule: Q01DX009 (ip), vehicle: saline 117 % of control | dose: 6.25 mg/kg/injection, schedule: Q01DX009 (ip), vehicle: saline 101 % of control | [1] 101 % of control | [2] 90 % of control | [3] 102 % of control | [4] 123 % of control

CC(O)CN(CC(C)O)c1ccccc1 (stereo unspecified)
inactive: [5] 102 % of control | [6] 102 % of control | dose: 200.0 mg/kg/injection, schedule: Q01DX009 (ip), vehicle: saline with Tween-80 94 % of control | dose: 200.0 mg/kg/injection, schedule: Q04DX003 (ip), vehicle: saline with Tween-80 103 % of control | dose: 400.0 mg/kg/injection, schedule: Q04DX003 (ip), vehicle: saline with Tween-80 101 % of control

CCCCC[As](=O)(O)CCCCC
inactive: [7] 104 % of control | [8] 106 % of control | [9] 115 % of control | [10] 94 % of control

CCOC(=O)C1CCC(C(=O)OCC)N1c1ccc(C=O)cc1 (stereo unspecified)
inactive: dose: 100.0 mg/kg/injection, schedule: Q01DX009 (sc), vehicle: olive oil, sesame oil, peanut oil 104 % of control | dose: 100.0 mg/kg/injection, schedule: Q04DX003 (sc), vehicle: olive oil, sesame oil, peanut oil 112 % of control | dose: 200.0 mg/kg/injection, schedule: Q01DX009 (sc), vehicle: olive oil, sesame oil, peanut oil 96 % of control | dose: 200.0 mg/kg/injection, schedule: Q04DX003 (sc), vehicle: olive oil, sesame oil, peanut oil 112 % of control | dose: 400.0 mg/kg/injection, schedule: Q01DX009 (sc), vehicle: olive oil, sesame oil, peanut oil 110 % of control | dose: 400.0 mg/kg/injection, schedule: Q04DX003 (sc), vehicle: olive oil, sesame oil, peanut oil 102 % of control

O=C(COc1ccc(Cl)cc1)Nc1cc(Cl)ccc1Cl
inactive: dose: 100.0 mg/kg/injection, schedule: Q01DX001 (ip), vehicle: Klucel (hydroxypropylcellulose) (HPC) 113 % of control | [11] 88 % of control | dose: 200.0 mg/kg/injection, schedule: Q01DX001 (ip), vehicle: Klucel (hydroxypropylcellulose) (HPC) 95 % of control | dose: 200.0 mg/kg/injection, schedule: Q04DX003 (ip), vehicle: Klucel (hydroxypropylcellulose) (HPC) 88 % of control | dose: 400.0 mg/kg/injection, schedule: Q01DX001 (ip), vehicle: Klucel (hydroxypropylcellulose) (HPC) 97 % of control | dose: 400.0 mg/kg/injection, schedule: Q04DX003 (ip), vehicle: Klucel (hydroxypropylcellulose) (HPC) 90 % of control

CS(=O)(=O)c1nc2ccccc2s1
inactive: dose: 25.0 mg/kg/injection, schedule: Q01DX009 (ip), vehicle: saline with Tween-80 97 % of control | dose: 25.0 mg/kg/injection, schedule: Q04DX003 (ip), vehicle: Klucel (hydroxypropylcellulose) (HPC) 101 % of control | dose: 50.0 mg/kg/injection, schedule: Q01DX009 (ip), vehicle: saline with Tween-80 92 % of control | dose: 50.0 mg/kg/injection, schedule: Q04DX003 (ip), vehicle: Klucel (hydroxypropylcellulose) (HPC) 106 % of control | [5] 107 % of control | [11] 106 % of control

C[N+](C)(C)CCC[N+](C)(C)C
inactive: dose: 100.0 mg/kg/injection, schedule: Q01DX009 (ip), vehicle: saline 108 % of control | [12] 107 % of control | dose: 200.0 mg/kg/injection, schedule: Q01DX009 (ip), vehicle: saline 106 % of control | [13] 92 % of control | dose: 400.0 mg/kg/injection, schedule: Q01DX009 (ip), vehicle: saline 106 % of control | [14] 100 % of control

CN(C)S(=O)(=O)Oc1cccc([N+](=O)[O-])c1
inactive: dose: 25.0 mg/kg/injection, schedule: Q04DX003 (ip), vehicle: saline with Tween-80 100 % of control | dose: 50.0 mg/kg/injection, schedule: Q04DX003 (ip), vehicle: saline with Tween-80 104 % of control | [6] 100 % of control

OCCCNCc1ccccc1
inactive: [12] 94 % of control | [13] 103 % of control | [14] 97 % of control

OCC1OC(CO)(c2ccccc2O)C(O)C1O (stereo unspecified) (tested in a mixture with another compound)
inactive: [10] 95 % of control | dose: 200.0 mg/kg/injection, schedule: Q01DX001 (ip), vehicle: saline 97 % of control | dose: 400.0 mg/kg/injection, schedule: Q01DX001 (ip), vehicle: saline 92 % of control

Nc1[nH]c(=S)nc2c1ncn2C1CCCC1
inactive: [15] 93 % of control | [16] 93 % of control

CCCCOc1ccc(OCCCC)cc1
inactive: [17] 105 % of control | [18] 97 % of control | dose: 400.0 mg/kg/injection, schedule: Q04DX002 (ip), vehicle: Klucel (hydroxypropylcellulose) (HPC) 101 % of control

CCOC(=O)N1CC2CCc3c(ccc4ccccc34)N2C1=O (stereo unspecified)
inactive: [15] 97 % of control | [16] 92 % of control | dose: 400.0 mg/kg/injection, schedule: Q01DX001 (ip), vehicle: other 95 % of control

Oc1ccc2ccccc2c1/C=N\Nc1ccccn1
inactive: [19] 92 % of control | [20] 92 % of control | dose: 400.0 mg/kg/injection, schedule: Q04DX002 (ip), vehicle: saline with Tween-80 89 % of control

CC(=O)Oc1cn(Cc2ccccc2)c2c1C(=O)CC(C)C2 (stereo unspecified)
inactive: dose: 50.0 mg/kg/injection, schedule: Q04DX002 (ip), vehicle: Klucel (hydroxypropylcellulose) (HPC) 108 % of control | [17] 94 % of control | [18] 102 % of control

CCCCCCCCCCCCCCCC[n+]1ccc(/C=C/c2ccccc2)cc1
inactive: dose: 2.5 mg/kg/injection, schedule: Q01DX001 (ip), vehicle: carboxymethylcellulose (CMC) 116 % of control | dose: 5.0 mg/kg/injection, schedule: Q01DX001 (ip), vehicle: carboxymethylcellulose (CMC) 121 % of control | dose: 10.0 mg/kg/injection, schedule: Q01DX001 (ip), vehicle: carboxymethylcellulose (CMC) 116 % of control

CN1C(=O)c2ccccc2C1(N)c1ccccc1 (stereo unspecified)
inactive: [21] 90 % of control | [22] 105 % of control | [23] 100 % of control

S=C(Nc1ccc(Cl)cc1)NC1CC2C=CC1C2 (stereo unspecified)
inactive: [19] 101 % of control | [20] 93 % of control

Cc1cc(O)[nH]c(=O)c1
inactive: [7] 105 % of control | [8] 105 % of control | dose: 20.0 mg/kg/injection, schedule: Q01DX001 (ip), vehicle: saline 100 % of control | [9] 105 % of control | dose: 80.0 mg/kg/injection, schedule: Q01DX001 (ip), vehicle: saline 100 % of control

CC(/C=C/c1ccco1)=N\O
inactive: dose: 50.0 mg/kg/injection, schedule: Q01DX009 (ip), vehicle: other 105 % of control

OC1OC(CN(CCCl)c2ccccc2)C(O)C(O)C1O (stereo unspecified)
inactive: dose: 18.0 mg/kg/injection, schedule: Q01DX Z (ip), vehicle: methylcellulose (MC) 109 % of control | dose: 27.0 mg/kg/injection, schedule: Q01DX Z (ip), vehicle: methylcellulose (MC) 117 % of control | dose: 60.0 mg/kg/injection, schedule: Q01DX Z (ip), vehicle: methylcellulose (MC) 117 % of control

CCN(CC)CC(=O)NCC(CCCN1CCCCC1)(c1cccc2ccccc12)C(C)C (stereo unspecified)
inactive: [1] 91 % of control | dose: 12.5 mg/kg/injection, schedule: Q04DX003 (ip), vehicle: saline 98 % of control | [2] 90 % of control | [3] 95 % of control | dose: 50.0 mg/kg/injection, schedule: Q01DX009 (ip), vehicle: saline 86 % of control | [4] 96 % of control

CCCCCCCCCCCC(=O)c1ccccc1
inactive: [21] 86 % of control | [22] 91 % of control | [23] 94 % of control

O=C1C(n2ccc(=O)n(Cc3ccccc3)c2=O)CCN1CCO (stereo unspecified)
inactive: [12] 96 % of control | [13] 119 % of control | [14] 102 % of control
